From patent publication US6967102B1, “Nitric oxide manipulation of muscle satellite cell activation” (University of Manitoba, priority 1999, dated 2005)
Entries after “also recorded” stand apart in the source; their conditions may differ.

Columns and labels:
satellite cells [1] = assay: Satellite cell morphometry from electron micrographs 0 and 10 min after crush injury; assay type: in vivo, mice; conditions: L-NAME pretreatment
Description: Measurements of cell area (size increases in activated cells), nucleus-to-cytoplasm ratio (a measure that decreases with activation), and cytoplasmic density (a measure that decreases in activation with the increase in cell size, despite the hypertrophy of cytoplasmic organelles) were made from electron micrographs without knowledge of their source. Two investigators had to agree on the satellite cell identification before cells were included in the study, with the stipulation that cell profiles had complete nuclei and cell membrane visible in a photograph or montage (all photographs taken at identical magnification of 10,000×) Satellite cells originated from the central crush-injured region of muscles collected from each mouse (n=4). Cytoplasmic density was determined as [the integrated cell density minus the integrated nuclear density] divided by [cell area minus nuclear area]. A computer was used to scan micrograph negatives, and digital images were analyzed using the program NIH Image for morphometry.

regenerating mdx muscles = assay: Muscle regeneration 6 days after crush injury, mdx mice; assay type: in vivo; conditions: single L-NAME injection
Method: (§1) The time course of treatment effects was determined at two intervals; during the early response 0, 5, 10 and 30 min after injury, and over the longer term after 6 days recovery. Short term experiments were repeated at least twice. The longer term animals were maintained either on plain drinking water or water containing fresh L-NAME at 12.5 mg/100 ml (30 mg/kg/day), based on an intake of 6–7 ml/day/mouse (McIntosh et al., 1994. 17:444–453). In the longer term repair studies, there were 4 normal mice in each of saline- and L-NAME-treated groups. An additional 2 normal and 2 mdx mice were injected once before injury with L-NAME and given plain water for 6 days.
Sections and cultures were viewed on an Olympus microscope equipped with epifluorescence and phase contrast optics. Observations were based on systematic viewing of 2–4 longitudinal sections per muscle (separated by […]). In the case of muscle regenerating from crush injury, observations (without knowledge of treatment group) were made in pre-set fields of muscle from the central crush region, the adjacent regenerating region and the surviving region as reported (McIntosh et al. (1994) Muscle Nerve 17: 444–453). Representative photographs of muscle fibers and satellite cells were taken on over 700 frames of ASA 400 Fuji Sensia slide film. […]

regenerating muscle = assay: Muscle regeneration 6 days after crush injury, normal mice; assay type: in vivo
Method: as §1
In the longer term study of NOS inhibition during repair, saline and L-NAME-treated normal mice recovered for 6 days. Two mice per group were injected 2 hr before sacrifice with BrdU (i.p., 1.6 mg in 0.4 ml saline) and sections were immunostained using anti-BrdU antibodies as above.
Sections and cultures were viewed on an Olympus microscope equipped with epifluorescence and phase contrast optics. Observations were based on systematic viewing of 2–4 longitudinal sections per muscle (separated by […]). In the case of muscle regenerating from crush injury, observations (without knowledge of treatment group) were made in pre-set fields of muscle from the central crush region, the adjacent regenerating region and the surviving region as reported (McIntosh et al. (1994) Muscle Nerve 17: 444–453). Representative photographs of muscle fibers and satellite cells were taken on over 700 frames of ASA 400 Fuji Sensia slide film. Where stated, the number of satellite cells observed in each category, group or condition was estimated from photographed slides rather than from direct counts made during observations under oil immersion. Selected slides were scanned (Olympus Film Scanner ES-10, Olympus Optical Co., Tokyo), formatted into plates with little or no enlargement and printed (Freehand 8.0, Macromedia Inc.).

satellite cells [2] = assay: Cell yield time course 0–30 min after crush injury of right tibialis anterior, normal mice; assay type: in vivo, normal mice (C57BL/6)

Which cell area (satellite cells [1]; 0 minutes post-crush, n = 8) does the source give for COC(=O)[C@@H](N)CCCNC(=N)N[N+](=O)[O-] [L-NAME, Nω-nitro-L-arginine methyl ester] here?
Its cell area is 9.0 ± 1.6 arbitrary units.

What about the cytoplasmic density (satellite cells [1]; 0 minutes post-crush, n = 8) of the same molecule?
The cytoplasmic density was 91.7 ± 5.8 arbitrary units.

What about the “nucleus:cytoplasm ratio” value (satellite cells [1]; 0 minutes post-crush, n = 8) of the same molecule?
Its value is 70.2 ± 1.7%.

What about the “satellite cell activation state by morphologic criteria” value (satellite cells [1]; 0–10 minutes post-crush) of the same molecule?
Its value is “maintained quiescence over 10 minutes”.

What about the cell area (satellite cells [1]; 10 minutes post-crush, n = 3) of the same molecule?
The cell area was 6.3 ± 1.1 arbitrary units.

And the cytoplasmic density (satellite cells [1]; 10 minutes post-crush, n = 3)?
The cytoplasmic density was 66.2 ± 2.1 arbitrary units.

And the “nucleus:cytoplasm ratio” value (satellite cells [1]; 10 minutes post-crush, n = 3)?
Its value is 52.0 ± 8.7 %.

And the “new myotubes in continuity with satellite cells, anchored inside external lamina sheaths” value (regenerating mdx muscles; 6 days)?
Its value is “roughly 5%”.

What about the “regenerating muscle over 6 days” value (regenerating mdx muscles; n=2) of the same molecule?
Its value is “subtle changes in regenerating mdx muscles”.

And the muscle regeneration (regenerating muscle; L-NAME in drinking water (30 mg/kg/day) over 6 days of repair, n=4)?
Its muscle regeneration is “muscle regeneration was reduced; also recorded: reduces normal muscle regeneration”.

And the “density of myotubes per field vs saline-treated mice” value (regenerating muscle; L-NAME over 6 days of repair)?
Its value is “much lower density per field”.

And the branched myotubes (regenerating muscle; longer term L-NAME exposure of regenerating mdx and normal muscle in vivo)?
Its branched myotubes is “high prevalence of branched myotubes”.

And the “myotubes appearing as incompletely fused blocks of cells” value (regenerating muscle; single injection of L-NAME before injury, 6 days, estimated)?
The value was 5–10%.

And the “muscle regeneration after 6 days” value (regenerating muscle; single injection of L-NAME before injury, n=2)?
The value was “subtle effects on muscle regeneration”.

What about the “time of delayed peak RTA yield after injury” value (satellite cells [2]; L-NAME 3 mg/kg, one experiment) of the same molecule?
The value was < 10 min.

And the “LTA cell yield at 10 min relative to 0 min” value (satellite cells [2]; L-NAME 7.5 mg/kg)?
Its value is 2 fold.

What about the “RTA cell yield at 10 min relative to 0 min” value (satellite cells [2]; L-NAME 7.5 mg/kg) of the same molecule?
The value was 3.5 fold.

What about the “time after injury until which the increased RTA cell yield is delayed” value (satellite cells [2]; L-NAME 7.5 mg/kg ip 30 min before crush) of the same molecule?
The value was 10 min.

And the “initial injury-induced rise in RTA cell yield” value (satellite cells [2]; L-NAME 7.5 mg/kg ip 30 min before crush, 0 min)?
The value was “preventing the initial injury-induced rise in RTA yield; also recorded: absent after L-NAME”.

What about the “LTA cell yield lower than in saline-treated mice” value (satellite cells [2]; L-NAME 7.5 mg/kg, 0 min) of the same molecule?
Its value is 15%.

And the “RSOL cell yield lower than in saline-treated mice” value (satellite cells [2]; L-NAME 7.5 mg/kg, 0 min)?
Its value is 50%.

And the “fewer cells isolated from RTA than LTA” value (satellite cells [2]; L-NAME 7.5 mg/kg, 0 min)?
Its value is 30%.

What about the “time of delayed peak RTA yield after injury” value (satellite cells [2]; L-NAME 10 or 12.5 mg/kg, one experiment at each dose) of the same molecule?
Its value is > 10 min.

What about the “peak cell yield in RTA” value (satellite cells [2]; L-NAME ip 30 min before crush) of the same molecule?
Its value is “delayed (not reduced)”.

What about the “peak in cell yield from LTA (at 10 min.)” value (satellite cells [2]; L-NAME ip 30 min before crush) of the same molecule?
Its value is “reduced but not delayed; also recorded: reduced by L-NAME treatment”.
